# From patent publication US10035799B2, “COMT inhibiting methods and compositions” (Lieber Institute for Brain Development, priority 2015, dated 2018)
# Target: T1, catechol-O-methyltransferase (COMT) (Homo sapiens, UniProt P21964)
# T1 construct: M51A variant) was expressed in HEK 293F cells
# T1 sequence (P21964 52-271 limits assumed): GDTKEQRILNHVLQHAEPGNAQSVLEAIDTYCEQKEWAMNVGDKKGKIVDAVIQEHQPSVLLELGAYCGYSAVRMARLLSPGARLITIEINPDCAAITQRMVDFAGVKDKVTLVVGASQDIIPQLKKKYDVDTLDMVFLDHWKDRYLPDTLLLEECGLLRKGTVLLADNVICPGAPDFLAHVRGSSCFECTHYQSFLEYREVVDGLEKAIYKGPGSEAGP
# Assay: COMT inhibition assay (HTRF, production of S-adenosyl homocysteine)
# Assay type: biochemical
# Details: recombinant human COMT, HTRF SAH production; MB-COMT or S-COMT not stated for Table 1
# Procedure: The ability of compounds to inhibit the activity of catechol-O-methyltransferase (COMT) was determined by a homogenous time-resolved fluorescent (HTRF) assay (Lina et al, 2012; kit from CisBio, Codolet, France). This assay measures the production of S-adenosyl homocysteine (SAH) from the methyl donor S-adenosyl methionine. Recombinant human membrane bound COMT (MB-COMT; M51A variant) was expressed in HEK 293F cells using 293Fectin (Life Technologies, Gent, Belgium) and membranes prepared. The membranes were re-suspended in buffer (20 mM Tris/HCl pH 7; 10 mM glycerol; 2 mM MgCl2; 10 mM NaCl), aliquoted and stored at −80° C. Recombinant human soluble COMT(S-COMT), Va1158 variant and a hexa-His tag on the N-terminus, was purified using Ni-NTA chromatography, the His tag removed and stored in buffer as above.
# For the human MB-COMT assay, membranes (62 ng/well) were incubated with SAM (20 μM final, CisBio) and dopamine (1.5 μM final; Sigma H8502, Diegem, Belgium) in the presence or absence of varying concentrations (typically 10 concentrations ranging from 10 μM to 0.1 nM) of compound for 40 min at 37° C. in 384-well microtitre plates (10 μl per well final volume). The reaction was terminated by the addition of acylation buffer and the amount of SAH produced determined according to manufacturer's instructions. Specific inhibition as that inhibited by a high concentration of tolcapone (10 μM; synthesised at UCB) and all experiments were validated using a control curve to tolcapone.
# The human S-COMT assay was performed as above except that 0.15 ng enzyme/well was incubated with SAM (20 μM final) and dopamine (100 μM final) for 15 min at 37° C. and SAH production determined.
# HTRF readings were performed using a Perkin Elmer Envision and results expressed as concentration of SAH produced using a standard curve. Results were analysed using non-linear regression to the 4-parameter logistic equation and pIC50 (−log 10 concentration of drug which inhibits enzyme activity/SAH production by 50%) determined.
row,"Activity range (pIC50, COMT inhibition)",SMILES
1,+ (a pIC50 of from about 4.5 to 6),"Cc1cc(S(=O)(=O)N2C[C@@H](F)[C@H](F)C2)c2cccnc2c1O [Example 116, 5-[(3R,4R)-3,4-difluoropyrrolidin-1-yl]sulfonyl-7-methyl-quinolin-8-ol]"
2,+++ (a pIC50 of above about 7),"Cc1cnccc1S(=O)(=O)c1ccc(O)c2ncccc12 [Example 27, 5-[(3-methyl-4-pyridyl)sulfonyl]quinolin-8-ol]"
3,+++ (a pIC50 of above about 7),"O=C(c1ccccc1)C1CCN(S(=O)(=O)c2ccc(O)c3ncccc23)CC1 [Example 85, [1-[(8-hydroxy-5-quinolyl)sulfonyl]-4-piperidyl]-phenyl-methanone]"
4,+++ (a pIC50 of above about 7),"O=S(=O)(c1ccc(O)c2ncccc12)N1CCN(Cc2ccccc2)CC1 [Example 43, 5-(4-benzylpiperazin-1-yl)sulfonylquinolin-8-ol]"
5,+++ (a pIC50 of above about 7),"Cc1ccc(S(=O)(=O)c2ccc(O)c3ncccc23)cc1 [Example 1, 5-tosylquinolin-8-ol]"
6,+++ (a pIC50 of above about 7),"O=S(=O)(c1cccc(-c2ccc(F)c(Cl)c2)c1)c1ccc(O)c2ncccc12 [Example 24, 5-[3-(3-chloro-4-fluoro-phenyl)phenyl]sulfonylquinolin-8-ol]"
7,+++ (a pIC50 of above about 7),"Cc1ccc(S(=O)(=O)c2ccc(O)c3ncccc23)c(C)c1 [Example 10, 5-(2,4-dimethylphenyl)sulfonylquinolin-8-ol]"
8,+++ (a pIC50 of above about 7),"CN(Cc1ccc(F)cc1)S(=O)(=O)c1ccc(O)c2ncccc12 [Example 49, N-[(4-fluorophenyl)methyl]-8-hydroxy-N-methyl-quinoline-5-sulfonamide]"
9,+++ (a pIC50 of above about 7),"COc1ccc(C2CCCN2S(=O)(=O)c2ccc(O)c3ncccc23)cc1 (stereo not shown) [Example 77, 5-[2-(4-methoxyphenyl)pyrrolidin-1-yl]sulfonylquinolin-8-ol]"
10,+++ (a pIC50 of above about 7),"O=S(=O)(c1ccc(O)c2ncccc12)N1CCCC1Cc1ccccc1 (stereo not shown) [Example 75, 5-(2-benzylpyrrolidin-1-yl)sulfonylquinolin-8-ol]"
11,+++ (a pIC50 of above about 7),"Cc1ccc(S(=O)(=O)c2cc(Cl)c(O)c3ncccc23)cc1 [Example 109, 7-chloro-5-(p-tolylsulfonyl)quinolin-8-ol]"
12,+++ (a pIC50 of above about 7),"O=S(=O)(c1ccc(O)c2ncccc12)c1cccc2c1ncn2Cc1ccccc1Cl [Example 28, 5-[1-[(2-chlorophenyl)methyl]benzimidazol-4-yl]sulfonylquinolin-8-ol]"
13,+++ (a pIC50 of above about 7),"COc1cccc(CN(C)S(=O)(=O)c2ccc(O)c3ncccc23)c1 [Example 42, 8-hydroxy-N-[(3-methoxyphenyl)methyl]-N-methyl-quinoline-5-sulfonamide]"
14,+++ (a pIC50 of above about 7),"O=S(=O)(c1ccccc1)c1ccc(O)c2ncccc12 [Example 22, 5-(benzenesulfonyl)quinolin-8-ol]"
15,+++ (a pIC50 of above about 7),"Cc1cccc(N2CCC(S(=O)(=O)c3ccc(O)c4ncccc34)CC2)c1C [Example 39, 5-[[1-(2,3-dimethylphenyl)-4-piperidyl]sulfonyl]quinolin-8-ol]"
16,+++ (a pIC50 of above about 7),"O=S(=O)(c1ccc(O)c2ncccc12)N1CCCC1c1ccc(F)cc1 (stereo not shown) [Example 74, 5-[2-(4-fluorophenyl)pyrrolidin-1-yl]sulfonylquinolin-8-ol]"
17,+++ (a pIC50 of above about 7),"Cc1cccc(S(=O)(=O)c2ccc(O)c3ncccc23)c1 [Example 7, 5-(m-tolylsulfonyl)quinolin-8-ol]"

row,SMILES,"Activity range (pIC50, COMT inhibition)"
1,"Cc1cc(S(=O)(=O)N(C)[C@H](C)c2ccccc2)c2cccnc2c1O [Example 115, 8-hydroxy-N,7-dimethyl-N-[(1R)-1-phenylethyl]quinoline-5-sulfonamide]",++ (a pIC50 of from about great than 6 to 7)
2,"O=S(=O)(c1ccc(O)c2ncccc12)N1CCN(c2ccc(C(F)(F)F)cc2)CC1 [Example 94, 5-[4-[4-(trifluoromethyl)phenyl]piperazin-1-yl]sulfonylquinolin-8-ol]",++ (a pIC50 of from about great than 6 to 7)
3,"O=S(=O)(c1ccc(O)c2ncccc12)N1CCN(c2cccc(Cl)c2Cl)CC1 [Example 97, 5-[4-(2,3-dichlorophenyl)piperazin-1-yl]sulfonylquinolin-8-ol]",++ (a pIC50 of from about great than 6 to 7)
4,"O=S(=O)(c1ccc(O)c2ncccc12)N1CCCC1c1ccncc1 (stereo not shown) [Example 79, 5-[2-(4-pyridyl)pyrrolidin-1-yl]sulfonylquinolin-8-ol]",++ (a pIC50 of from about great than 6 to 7)
5,"Cc1cccc(N2CCN(S(=O)(=O)c3ccc(O)c4ncccc34)CC2)c1C [Example 100, 5-[4-(2,3-dimethylphenyl)piperazin-1-yl]sulfonylquinolin-8-ol]",++ (a pIC50 of from about great than 6 to 7)
6,"O=S(=O)(c1ccc(O)c2ncccc12)N1CCN(c2ccc(Cl)cn2)CC1 [Example 69, 5-[4-(5-chloro-2-pyridyl)piperazin-1-yl]sulfonylquinolin-8-ol]",++ (a pIC50 of from about great than 6 to 7)
7,"O=S(=O)(c1ccc(O)c2ncccc12)N1CC2CCC(CC2)C1 [Example 91, 5-(3-azabicyclo[3.2.2]nonan-3-ylsulfonyl)quinolin-8-ol]",+++ (a pIC50 of above about 7)
8,"O=S(=O)(c1ccc(O)c2ncccc12)C1CCNCC1 [Example 34, 5-(4-piperidylsulfonyl)quinolin-8-ol]",++ (a pIC50 of from about great than 6 to 7)
9,"O=S(=O)(c1cccnc1)c1ccc(O)c2ncccc12 [Example 19, 5-(3-pyridylsulfonyl)quinolin-8-ol]",++ (a pIC50 of from about great than 6 to 7)
10,"CN(C)CCN(Cc1ccccc1)S(=O)(=O)c1ccc(O)c2ncccc12 [Example 57, N-benzyl-N-(2-dimethylaminoethyl)-8-hydroxy-quinoline-5-sulfonamide]",++ (a pIC50 of from about great than 6 to 7)
11,"O=S(=O)(c1ccc(O)c2ncccc12)N1CCN(c2ccccc2)CC1 [Example 41, 5-(4-phenylpiperazin-1-yl)sulfonylquinolin-8-ol]",++ (a pIC50 of from about great than 6 to 7)
12,"Cc1ccc(C)c(N2CCN(S(=O)(=O)c3ccc(O)c4ncccc34)CC2)c1 [Example 93, 5-[4-(2,5-dimethylphenyl)piperazin-1-yl]sulfonylquinolin-8-ol]",++ (a pIC50 of from about great than 6 to 7)
13,"O=S(=O)(c1ccc(O)c2ncccc12)N1CC(Oc2ccc(OC(F)(F)F)cc2)C1 [Example 99, 5-[3-[4-(trifluoromethoxy)phenoxy]azetidin-1-yl]sulfonylquinolin-8-ol]",++ (a pIC50 of from about great than 6 to 7)
14,"O=S(=O)(c1ccc(Cl)c(Cl)c1)c1ccc(O)c2ncccc12 [Example 15, 5-(3,4-dichlorophenyl)sulfonylquinolin-8-ol]",++ (a pIC50 of from about great than 6 to 7)
